{"source": "patent US20140004209A1", "about": "“AUTOPHAGY INDUCER AND INHIBITOR COMBINATION THERAPY FOR THE TREATMENT OF NEOPLASMS” (GENENTECH, INC., priority 2010, published 2014)", "format_in_all_cases": "cell-based, human", "key": {"[1]": {"test_system": "PC3 cells", "assay": "Mitochondrial membrane potential (MitoPT dye) in PC3 cells", "conditions": "for mitochondrial membrane potential, II-4 (Akti-1/2) and CQ: 3 μM Akti-1/2, 10 μM CQ", "experimental": "FIG. 21. […] Images at 48 h are shown. […] Merged images between red and green channels are also shown (MitoPT-M). Scale bar: 20 μm. (B) Percentage of cells showing red punctate stains and diffuse green stains from treatments described in (A). >86 cells from two random fields of fluorescent images of each treatment were counted. Error bars represent standard deviations between the two fields. […] Total fluorescence intensity from all cells was collected using the Isocyte (Blueshift Biotechnologies), a laser scanning imager. Green fluorescence intensity is collected with a 488 nm laser and a 510-540 nm band pass filter, and normalized to cell number determined by Hoechst staining using a 405 nm laser and a 430-480 nm band pass filter. Error bars, standard deviation between two independent experiments. (D) Representative images of the green ROS signals and bright field (BF) taken under a Nikon TE300 inverted microscope. […] Scale bar: 20 μm.\nCell Culture and Reagents: The PTEN^−/− and PTEN^+/+ MEFs were maintained as previously described (Sun, H., R. Lesche, D. M. Li, J. Liliental, H. Zhang, J. Gao, N. Gavrilova, B. Mueller, X. Liu, and H. Wu, (1999), PTEN modulates cell cycle progression and cell survival by regulating phosphatidylinositol 3,4,5,-trisphosphate and Akt/protein kinase B signaling pathway. Proc Natl Acad Sci USA. 96:6199-204). The PC3 and U87MG cells were maintained at 37° C. and 5% CO2 in DMEM/Ham's F-12 (1:1) containing 10% tetracycline-free fetal bovine serum. II-4 was from Calbiochem (Akt inhibitor VIII) (Barnett, S. F., D. Defeo-Jones, S. Fu, P. J. Hancock, K. M. Haskell, R. E. Jones, J. A. Kahana, A. M. Kral, K. Leander, L. L. Lee, J. Malinowski, E. M. McAvoy, D. D. Nahas, R. G. Robinson, and H. E. Huber, (2005), Identification and characterization of pleckstrin-homology-domain-dependent and isoenzyme-specific Akt inhibitors. Biochem J. 385:399-408). […] Image-iT LIVE Green Reactive Oxygen Species Detection Kit was purchased from Molecular Probes. MitoPT Mitochondria Permeability Transition Detection Kit was purchased from Immunochemistry Technologies, LLC."}, "[2]": {"test_system": "Akt", "assay": "Immunoblot of Akt and S6 phosphorylation in PC3 cells", "conditions": "II-4 alone", "from_the_text": "Western blot analysis, immunofluorescence, 1HC and TUNEL assay: For Western blot analysis, total protein lysates were subjected to SDS-PAGE and transferred to nitrocellulose. Antibodies used were: anti-Akt1, anti-Akt2, anti-Akt3, anti-total-Akt, anti-p-Akt (Ser473), anti-p-Akt (Thr308), anti-p-S6 (Ser235/236), anti-PARP and anti-cleaved caspase-3 (Cell Signaling Technology); anti-p-PRAS40 (Invitrogen); anti-p27^Kip1 (Santa Cruz Biotechnology); anti-LC3 (Novus); anti-LAMP2 and anti-Cathepsin D (BD Biosciences); and anti-GAPDH (Advanced Immunochemical Inc.). Primary antibodies were detected using IR Dye 800-conjugated (Rockland) and Alexa-Fluoro 680-conjugated (Molecular Probes) species-selective secondary antibodies. Detection and quantification were performed using an Odyssey infrared scanner (LICOR) using the manufacturer's software. For immunofluorescence staining, cells were fixed in 3% paraformaldehyde and permeabilized with 0.01% digitonin in PBS, followed by a rabbit polyclonal anti-LC3 (Abgent) primary antibody detected with a cy3-conjugated anti-rabbit secondary antibody (Jackson Immunoresearch). For IHC, formalin-fixed, paraffin-embedded specimens were collected. 5-μm-thick paraffin-embedded sections were stained using an anti-Ki-67 (MIB-1, DakoCytomation) antibody with the Dako ARK kit (Dako Corporation). Tissues were counterstained with haematoxylin, dehydrated, and mounted. In all cases, antigen retrieval was performed with the Dako Target Retrieval Kit as per manufacturer's instructions. For TUNEL assay, formalin-fixed, paraffin-embedded sections were stained using an in situ cell death detection kit (POD; Roche Diagnostic) according to the manufacturer's instructions."}, "[3]": {"test_system": "PC3 cells", "assay": "Mitochondrial superoxide (MitoSOX red) and cellular ROS in PC3 cells", "procedure": "(B) PC3 cells treated as in A were stained with the Image-iT LIVE green ROS Detection kit and examined by fluorescence microscopy at 24 h. […] (C) Quantification of MitoSOX red and ROS green fluorescence intensities by flow cytometry at 24 h. Cells were treated as in A and B. Error bars represent SEM (n=3).\nBecause mitochondria are the primary intracellular source of superoxide (O2^−) generation, we analyzed O2^− production using MitoSOX red, an O2^− indicator that accumulates in the mitochondria as a function of membrane potential and fluoresces upon oxidation and subsequent binding to DNA."}, "[4]": {"test_system": "PC3 cells", "assay": "Time-lapse microscopy of PC3 cells", "conditions": "5% FBS", "experimental": "Time-lapse video microscopy: Cells cultured in 24-well plates were imaged on an Olympus IX81 inverted microscope under environmental control (37° C. and 5% CO2) for 3 days. Imaging started 6 hours after the addition of the compounds and was taken at 1-hour intervals."}, "[5]": {"test_system": "PC3 cells", "assay": "Autophagy markers in PC3 cells (EM AVs, GFP-LC3, LC3-II/LC3-I, MDC, AO)"}}, "note": "“Also recorded” adds a separate entry of the source. Where two headings read alike, the source gives them in different places.", "data": [{"compound": "O=c1[nH]c2ccccc2n1C1CCN(Cc2ccc(-c3nc4cc5nc[nH]c5cc4nc3-c3ccccc3)cc2)CC1", "note": "[II-4, 1-(1-(4-(7-phenyl-1H-imidazo[4,5-g]quinoxalin-6-yl)benzyl)piperidin-4-yl)-1H-benzo[d]imidazol-2 (3H)-one]", "values": [{"measurement": "mitochondrial membrane potential, II-4 (Akti-1/2) and CQ", "setting": "[1]", "result": "almost complete loss of mitochondrial potential"}, {"measurement": "mitochondrial membrane potential, II-4 (Akti-1/2) and CQ", "setting": "[1]; listed as Akti-1/2", "result": "CQ enhanced Akti-1/2-induced mitochondria depolarization"}, {"measurement": "mitochondrial membrane potential, agent alone", "setting": "[1]; 0.5% FBS", "result": "caused a decrease in mitochondrial membrane potential"}, {"measurement": "phosphorylation of Akt on Ser473 and Thr308", "setting": "[2]", "result": "effectively inhibited the phosphorylation of Akt on both Ser473 and Thr308 residues"}, {"measurement": "phosphorylation of downstream target S6", "setting": "[2]", "result": "significantly reduced the phosphorylation of downstream target S6"}, {"measurement": "MitoSOX fluorescence, agent alone", "setting": "[3]", "result": "increased MitoSOX fluorescence within 6 h"}, {"measurement": "cellular ROS levels, II-4 (Akti-1/2) with CQ", "setting": "[3]", "result": "cotreatment with CQ caused a prolonged increase in ROS levels"}, {"measurement": "cellular ROS signal, agent alone", "setting": "[3]", "result": "attenuated within 48 h"}, {"measurement": "MitoSOX fluorescence, II-4 and CQ", "setting": "[3]; 3 μM II-4, 10 μM CQ", "result": "significant increase in fluorescence intensity"}, {"measurement": "cellular ROS levels, II-4 (Akti-1/2) with CQ", "setting": "[3]; listed as Akti-1/2", "result": "caused a prolonged increase in vacuolar fluorescence"}, {"measurement": "cellular ROS signal, agent alone", "setting": "[3]; listed as Akti-1/2", "result": "first induced a homogeneous increase in ROS level, but by 48 hours the fluorescence became significantly reduced"}, {"measurement": "cell morphology, II-4 and CQ", "setting": "[4]; 10 μM II-4, 10 μM CQ", "result": "cell shrinkage and plasma membrane rupture was observed within 48 h"}, {"measurement": "cell division and morphology, agent alone", "setting": "[4]; 10 μM, 3 d", "result": "near-complete inhibition of cell division without overt cell death"}, {"measurement": "AVO accumulation and apoptotic nuclei, II-4 and CQ (multispectral imaging flow cytometry)", "setting": "[5]", "result": "further increase in AVO accumulation in live cells and a concomitant increase in cells with condensed apoptotic nuclei"}, {"measurement": "AVO accumulation, agent alone (multispectral imaging flow cytometry)", "setting": "[5]", "result": "induced AVO accumulation without significant loss of viability"}, {"measurement": "AVs and nuclei by EM, Akti-1/2 and CQ", "setting": "[5]; 5 μM Akti-1/2, 10 μM CQ, 0.5% FBS", "result": "accumulation of larger AVs and the appearance apoptotic nuclei"}, {"measurement": "accumulation of LC3-II", "setting": "[5]; II-4 alone", "result": "significant accumulation of LC3-II within 24 h"}, {"measurement": "accumulation of LC3-II, with CQ cotreatment", "setting": "[5]; II-4 and 10 μM CQ", "result": "further enhanced upon CQ cotreatment"}, {"measurement": "induction of AV accumulation / autophagy, agent alone", "setting": "[5]; listed as Akti-1/2", "result": "induced overt autophagy; also recorded: induced accumulation of AVs"}]}]}
